According to patent publication US9908848B2, “Amide derivatives of lactam based N-acylethanolamine acid amidase (NAAA) inhibitors” (The Regents of the University of California, priority 2013, dated 2018):
pIC50: −log10 of the molar value.

Tests used:
[1] = target: T1, Rat AC (r-AC), Acid Ceramidase (Rattus norvegicus, UniProt Q6P7S1); experiment: Rat AC (r-AC) assay, UPLC/MS; format: biochemical; details: read-out: r-AC UPLC/MS assay % inhib.
T1 construct: V5 (C); His (C); made in house; host or cells: HEK293 cells transfected with pEF6-rAC-V5/His, selected with G418; soluble fraction after freeze/thaw
T1 sequence (Q6P7S1 21-394): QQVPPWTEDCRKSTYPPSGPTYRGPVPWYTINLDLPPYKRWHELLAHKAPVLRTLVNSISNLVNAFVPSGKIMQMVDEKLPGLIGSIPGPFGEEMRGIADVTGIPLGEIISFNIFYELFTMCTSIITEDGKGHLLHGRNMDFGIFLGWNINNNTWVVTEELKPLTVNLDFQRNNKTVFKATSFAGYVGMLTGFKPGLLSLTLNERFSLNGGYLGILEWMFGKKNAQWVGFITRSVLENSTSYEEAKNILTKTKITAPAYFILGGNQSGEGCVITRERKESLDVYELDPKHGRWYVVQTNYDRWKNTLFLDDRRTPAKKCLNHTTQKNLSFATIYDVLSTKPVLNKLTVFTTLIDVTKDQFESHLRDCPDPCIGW
Method: The selectivity of selected compounds versus Acid Ceramidase (AC) was determined.
Rat AC (r-AC) was cloned from a brain cDNA library using primers based on the sequence obtained from the National Center for Biotechnology Information (NCBI) database: 5′rAC (5′-GACCATGCTGGGCCGTAGT-3′) (SEQ ID NO:1) and 3′rAC (5′-CCAGCCTATACAAGGGTCT-3′) (SEQ ID NO:2). The PCR (High Fidelity PCR Master, Roche) product was subcloned into a pEF6-V5/His vector (Invitrogen) to construct a mammalian expression vector encoding V5/His-tagged rat AC. HEK293 cells were transfected with pEF6-rAC-V5/His using Super-Fect reagent (Qiagen) and screened with G418 (0.3 mg/mL). Cells were suspended in 20 mM Tris HCl (pH 7.5) containing 0.32M sucrose, sonicated and centrifuged at 800×g for 15 min at 4° C. The supernatants were centrifuged again at 12,000×g for 30 min at 4° C. The pellets were suspended in phosphate-buffered saline (PBS) and subjected to 2 freeze-thaw cycles at −80° C. The suspensions were centrifuged at 105,000×g for 1 hour at 4° C. The supernatants containing recombinant AC were kept at −80° C. until use. Protein concentration was measured using the bicinchoninic acid (BCA) assay (Pierce). Recombinant rat AC (50 μg) was preincubated with inhibitors (final DMSO concentration 1%) in assay buffer (100 mM sodium phosphate, 0.1% Nonidet P-40, 150 mM NaCl, 3 mM DTT, 100 mM sodium citrate, pH 4.5) for 30 min at 37° C. Reactions were started by the addition of 100 μM N-lauroyl ceramide (Nu-Chek Prep, Elysian, Minn.) and carried on for 30 min at 37° C. Reactions were stopped by addition of a mixture of chloroform/methanol (2:1, vol/vol) containing 1 nmol of heptadecanoic acid (HDA; NuChek Prep). The organic phases were collected, dried under N2, and analyzed by LC-MS in the negative-ion mode using […] (HDA) as internal standard (m/z=199 for lauric acid, m/z=269 for HDA). HDA was eluted on an XDB Eclipse C18 column isocratically at 2.2 mL/min for 1 min with a solvent mixture of 95% methanol and 5% water, both containing 0.25% acetic acid and 5 mM ammonium acetate. The column temperature was 50° C. Electrospray ionization (ESI) was in the negative mode, capillary voltage as 4 kV, and fragmentor voltage was 100 V. N2 was used as drying gas at a flow rate of 13 L/min and a temperature of 350° C. Nebulizer pressure was set at 60 psi. We monitored […] in the selected-ion monitoring (SIM) mode using HDA as internal standard. Calibration curves were generated using commercial lauric acid (Nu-Chek Prep; m/z=199).

human NAAA = target: T2, human NAAA (Homo sapiens, UniProt Q02083); experiment: Fluorogenic h-NAAA assay; format: biochemical; details: recombinant HEK-hNAAA preparation
T2 construct: made in house; host or cells: HEK293 cells, stably transfected; soluble fraction after freeze/thaw
T2 sequence (Q02083 29-359): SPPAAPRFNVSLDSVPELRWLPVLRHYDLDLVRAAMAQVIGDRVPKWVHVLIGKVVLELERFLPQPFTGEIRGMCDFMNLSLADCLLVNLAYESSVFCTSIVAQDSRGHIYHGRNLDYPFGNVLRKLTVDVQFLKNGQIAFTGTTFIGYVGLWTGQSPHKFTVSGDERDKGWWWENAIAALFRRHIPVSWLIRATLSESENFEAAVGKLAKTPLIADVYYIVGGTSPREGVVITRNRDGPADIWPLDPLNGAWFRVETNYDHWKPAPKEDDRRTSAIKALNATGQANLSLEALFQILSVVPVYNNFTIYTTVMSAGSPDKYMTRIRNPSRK
Method: Hek293 cells stably transfected with the human NAAA coding sequence cloned from a human spleen cDNA library were used as enzyme source. Recombinant HEK-hNAAA pellets were resuspended in homogenizing buffer, and sonicated. Samples were centrifuged at 800×g for 15 min at 4° C. and the supernatants were ultracentrifuged at 12,000×g for 30 min at 4° C. The pellets were resuspended in PBS pH 7.4 on ice and subjected to a freeze/thaw cycle at −80° C. (two freeze/thaw cycles at −80° C. for Examples 34-37). The suspension was finally centrifuged at 105,000×g for 1 h at 4° C. Protein concentration was measured and samples stored at −80° C. until use.
The assay was run in Optiplate 96-wells black plates, in a total reaction volume of 200 μL. NAAA protein preparation (4.0 μg for Examples except 34-37, which were 20.0 μg) was pre-incubated for 10 min with various concentrations of test compounds or vehicle control (5% DMSO) in 100 mM citrate/phosphate buffer (pH 4.5) containing 3.0 mM DTT, 0.1% Triton X-100, 0.05% BSA, 150 mM NaCl. N-(4-methyl-2-oxo-chromen-7-yl)-hexadecanamide was used as a substrate (5.0 μM) and the reaction carried over for 30 min at 37° C. The samples were then read in a Perkin Elmer Envision plate reader using an excitation wavelength of 360 nm and emission 460 nm. IC50 values were calculated by non-linear regression analysis of log [concentration]/inhibition curves using GraphPad Prism 5 (GraphPad Software Inc., CA—USA) applying a standard slope curve fitting.

inhibition at 1 µM [1] [%] | pIC50 (human NAAA) | SMILES
45 | 6.68 | O=C(CCCCCCC1CCCCC1)N[C@H]1CNC1=O [Example 30, 7-Cyclohexyl-N-[(3S)-2-oxoazetidin-3-yl]-heptanamide]
70 | 7.07 | CCCCCCCCCC(=O)N[C@H]1CNC1=O [Example 23, N-[(3S)-2-Oxoazetidin-3-yl]-decanamide]
